According to patent publication US12630532B2, “Indole-substituted quinolines and their combination with Plk1 inhibitors for the treatment of cancer” (UNIVERSITY OF KENTUCKY RESEARCH FOUNDATION, priority 2021, dated 2026):

Key:
[1] = tested on: mitochondrial ETC (electron transport chain); assay: Seahorse assay (OCR) in Beas-2B cells; format: cell-based
Procedure: (§1) Seahorse assays were carried out following a published procedure (25). Briefly, 2.5×10^4 cells in 80 μL of medium were seeded in XF96 Cell Culture microplate for all experiments. On the next day, cell culture media were replaced with Seahorse XF modified media. Cells were treated with 1 μM of oligomycin A, 1.0 μM FCCP and mixture of 1.0 μM of rotenone and 1.0 μM of antimycin A in standard mitochondrial stress test conditions. To determine the uncoupler effects, FCCP was replaced with an equal volume of DMSO, or a compound to be tested in DMSO solution.

Solubility comparison = format: physicochemical; conditions: relative comparison
AMPK [2] = assay: AMPK signaling (western blotting) in Beas-2B cells; format: cell-based; conditions: compared with CRC cells
Procedure: (§2) Western blotting were performed according to previous procedures (25). Cells were split into 12-well plates. After 24 hours, compounds at indicated final concentrations were added to each well for another 24 hours unless otherwise noted. DMSO was used as a control. Cells were lysed in the appropriate volume of lysis buffer: 50 mM HEPES, 100 mM NaCl, 2 mM EDTA, 1% (v/v) glycerol, 50 mM NaF, 1 mM Na3VO4, 1% (v/v) Triton X-100, with protease inhibitors. Cell lysates were centrifuged, and supernatants were mixed with 6× protein loading buffer and boiled. The obtained samples were analyzed with standard western blotting methods with indicated antibodies.

[3] = tested on: prostate cancer cell line PC-3; assay: Cell proliferation inhibition assay; format: cell-based; conditions: PC-3, 5 days (FIG. 1B)
Procedure: (§3) Cell proliferation inhibition assays were done following a previous report (32). Cancer cells were seeded into 24-well plates at a density of 20,000 cells per well in 1 mL of culture medium and were cultured overnight at 37° C. Compounds and the vehicle control (DMSO) were added to the cells. After 5 days, the medium was removed, and 100 μL of trypsin was added. The cells were resuspended in phosphate-buffered saline (PBS) and were counted by Vi-CELL XR 2.03 (Beckman Coulter, Inc. USA). The ratio R of the number of viable cells in the compound treatment group to the number of viable cells in DMSO treatment group was taken as relative growth, and the percentage growth inhibition was calculated as (1−R)*100.

[4] = tested on: liver cancer cell line HepG2; assay: Cell proliferation inhibition assay; format: cell-based; conditions: HepG2, 5 days (FIG. 1B)
Procedure: as §3

[5] = tested on: sarcoma cell line SK-LMS-1; assay: Cell proliferation inhibition assay; format: cell-based; conditions: SK-LMS-1, 5 days (FIG. 1B)
Procedure: as §3

[6] = tested on: mouse colon cancer organoids; assay: Colon cancer organoids from Apc^f/+/Kras^LSL-G12D/Villin-Cre mouse model; format: cell-based
Procedure: The colon cancer organoids were isolated from Apc^f/+/Kras^LSL-G12D/Villin-Cre mouse model (38). Using 48-well drug screening to assess how compounds affected organoid colony formation, the Matrigel containing organoids was digested by 300 μL dispase. The gel was removed by 1,000×5 min spinning. The organoids were digested into single cells by 1 mL Trypsin and washed with 10 mL of ADF12. For each well, 80 μL of Matrigel was added to the bottom and 1000 cells in 60 μL Matrigel were added to the top. The cells were cultured in 250 μL of 3D complete medium (Advanced DMEM/F12 supplemented with 1×N-2, 1×B-27, 1 mM N-acetylcysteine and 1% penicillin/streptomycin). The cells were treated with DMSO or testing compounds and total number of organoids with diameter greater than 50 μm were analyzed and manually counted using microscope.
After 3 days when organoids formed, fresh culture media were supplied, and compounds were added for additional 3 days. Organoid viability was measured using CellTiter-Glo® 3D Cell Viability Assay (Promega) following manufacturer's protocol.

AMPK [7] = assay: AMPK activation (western blotting, pAMPK/pACC) in LS174T cells; format: cell-based
Procedure: as §2

[8] = tested on: Wnt signaling target genes c-Myc and axin2; assay: Western blotting of Wnt signaling target genes in LS174T cells; format: cell-based; conditions: 24 hours
Procedure: as §2

LS174T cells = assay: Cell proliferation inhibition assay (5 days, cell counting); format: cell-based
Procedure: as §3

TOPFlash Wnt reporter = TOPFlash Wnt reporter assay in stable HEK293T cells; format: cell-based; conditions: 24 hours treatment
Procedure: Wnt reporter assay was described previously (25). We subcloned Super 8×TOPFlash (provided by Professor Randall Moon, University of Washington) into the pGL4.83 [hRlucP/Puro] Vector and transfected it into HEK293T cells. A stable HEK293T cell line containing the TOPFlash reporter was established using puromycin selection (25). To assess if compounds of interest blocked the downstream signaling transduction pathway of β-catenin, the stable reporter cells were seeded to a 12-well plate and treated with 25 mM LiCl to stabilize β-catenin for 16 hours to activate Wnt signaling and then candidate compounds at predetermined concentrations for another 24 hours. The cells were lysed and centrifuged to obtain supernatants which were analyzed by FB 12 Single Tube Luminometer by Titertek-Berthold (Berthold Detection Systems GmbH, Elsässerstr, Germany).

[9] = tested on: mitochondrial ETC complex I; assay: Mitochondrial ETC complex activity measurements using PMP-permeabilized cells; format: cell-based
Procedure: Mitochondrial ETC complex activity measurements were taken using the Agilent Seahorse Assay with XF PMP (Agilent, Santa Clara, CA) following manufacturer's instructions. Adherent monolayer cells were gently washed with mitochondrial assay solution (MAS) (220 mM mannitol, 70 mM sucrose, 10 mM KH2PO4, 5 mM MgCl2, 2 mM HEPES, 1 mM EGTA, and 0.2% (w/v) fatty acid free BSA) and cell growth media was replaced with MAS supplemented with 4 mM adenosine diphosphate (ADP), 10 mM pyruvate, and 1 nM PMP. Following calibration, the assay was immediately performed by measuring baseline with two cycles of 0.5 min mixing, 0.5 min waiting, and 2 min measuring. After baseline measurements, sequential injections of DMSO, compounds of interest or 2 μM rotenone, 10 mM succinate, 2 μM antimycin A, and a combination of 10 mM ascorbate and 100 μM TMPD were also performed with each followed by two cycles of 0.5 min mixing, 0.5 min waiting, and 2 min measuring. Data were then normalized to cell counts using the Biotek Cytation 1 (BioTek Instruments, Winooski, VT, USA).

Plk1 = assay: Western blotting of cell signaling pathways in LS174T cells; format: cell-based; conditions: LS174T colon cancer cells, 24 hours
Procedure: as §2

[10] = tested on: mitochondrial ETC (electron transport chain); assay: Seahorse assay (OCR) in LS174T cells; format: cell-based
Procedure: as §1

In the case of `CN(C)c1ccc2cc(-c3cn(C)c4ccccc34)c(N)nc2c1` [ISQ-1, N^7,N^7-Dimethyl-3-(1-methyl-1H-indol-3-yl)quinoline-2,7-diamine], the “ETC complex V inhibition (oligomycin replaced with compound)” value [1] is reported as “did not inhibit ETC complex V”, the “uncoupler effect (FCCP replaced with compound)” value [1] is reported as “no uncouplers” and the solubility (Solubility comparison) is reported as “better than that of ISQ-7”. For the same compound, the AMPK signaling activation (AMPK [2]) was “less effective in activating AMPK signaling”, the “inhibited in vitro cell growth” value [3] was “nanomolar concentrations” and the “inhibited in vitro cell growth” value [4] was “nanomolar concentrations”. The “inhibited in vitro cell growth” value [5] was “nanomolar concentrations”, the “organoid growth (CellTiter-Glo 3D viability)” value ([6]; 3-day treatment after organoids formed) was “inhibited organoid growth in a dose-dependent manner” and the “tumor organoid formation from single cells” value ([6]; day 7) was “inhibited tumor organoid formation from single cells”. For the same compound, the AMPK activation (AMPK [7]) was “activated AMPK in a dose-dependent manner”, the “effect on Wnt signaling target genes c-Myc and axin2” value [8] was “inhibited” and the “percentage inhibition of LS174T cell proliferation at 500 nM, compared among ISQs (FIG. 2B)” value (LS174T cells; 500 nM) was “more active”. The inhibition at 0.062 µM (LS174T cells; Homo sapiens, LS174T, 120 h, 62 nM, 5 days) was 16 ± 2%, the inhibition at 0.125 µM (LS174T cells; Homo sapiens, LS174T, 120 h, 125 nM, 5 days) was 22 ± 5% and the inhibition at 0.25 µM (LS174T cells; Homo sapiens, LS174T, 120 h, 250 nM, 5 days) was 38 ± 2.2%. It also gave an inhibition at 0.5 µM (LS174T cells; Homo sapiens, LS174T, 120 h, 500 nM, 5 days) of 91 ± 4.3%, an inhibition at 0.3 µM (LS174T cells; Homo sapiens, LS174T, read-out: Inhibition % on LS174T cells Proliferation 0.3 uM Inhib. %) of 83.9% and an inhibition at 1 µM (LS174T cells; Homo sapiens, LS174T, read-out: Inhibition % on LS174T cells Proliferation 1 uM Inhib. %) of 92.7%. For the same compound, the inhibition at 3 µM (LS174T cells; Homo sapiens, LS174T, read-out: Inhibition % on LS174T cells Proliferation 3 uM Inhib. %) was 99.3%, the “inhibited in vitro cell growth” value (LS174T cells; LS174T, 5 days (FIG. 1B)) was “nanomolar concentrations” and the “TOPFlash Wnt reporter luciferase luminescence” value (TOPFlash Wnt reporter) was “inhibited TOPFlash Wnt reporter”. The “ETC complex I inhibition (pyruvate/NADH-linked respiration)” value ([9]; pyruvate substrate) was “inhibited complex I”, the “inhibition of complexes II, III, or IV (respiration after succinate)” value ([9]; succinate added) was “ruled out the possibility that ISQ-1 inhibited complexes II, III, or IV” and the “Plk1 expression upon drug treatment” value (Plk1) was “induced”. The “ETC complex V inhibition (oligomycin replaced with compound)” value [10] was “did not inhibit ETC complex V”.
